Here are results for one molecule from US20190134120A1, “METHODS FOR THE TREATMENT OF BLADDER CANCER” (Viralytics Limited, priority 2013, published 2019).

Each structure is given as a SMILES string. ≈ marks a conversion by molar mass, not a printed value.

For one assay, the system named is T24 cells. The assay can be described thus: Mitomycin C IC50, T24 cells. It is filed as cell-based, Human. As to conditions: 1x fold IC50 treatment concentration.
A further assay has as its system 5637 cells. The assay can be described thus: Mitomycin C IC50, 5637 cells. The settings on record: 1x fold IC50 treatment concentration. It is filed as cell-based, Human.
For the next assay, the system named is KU19-19 cells. The assay can be described thus: Mitomycin C IC50, KU19-19 cells. It is filed as cell-based, Human. The settings on record: 1x fold IC50 treatment concentration.
Assay [1] deals with ICAM-1. The assay can be described thus: QPCR for ICAM-1 expression after Mitomycin C. It is filed as cell-based, Human. The settings on record: 5637 cancer cell line exposed to Mitomycin C. The protocol: (§1) FIGS. 4A-B: QPCR for ICAM-1/DAF expression. FIG. 4a) On 5637 & T24 cancer cell lines 24 hrs after irradiation (Gy 4-10). FIG. 4b) On 5637 cancer cell line exposed to Mitomycin C.
(§2) Exposure to the chemotherapy agent Mitomycin C, up-regulates both ICAM-1 and DAF at the RNA level (FIG. 4b). To mimic patient exposure to Mitomycin C T24, RU19-19 and 5637 cells were pulsed with drug for 1, 3, 7, 24 hrs and ICAM-1 and DAF expression was measured by FACS analysis at 24 hrs.

Assay [2] relates to DAF. Nature of the assay: QPCR for DAF expression after Mitomycin C. It is filed as cell-based, Human. The settings on record: 5637 cancer cell line exposed to Mitomycin C. The protocol: as §1, §2
Assay [3] has as its system ICAM-1. Nature of the assay: FACS analysis of ICAM-1 (CD54) expression after Mitomycin C pulse. The format is cell-based, Human. The protocol: (§3) FIG. 5: FACS analysis of ICAM-1/DAF express in bladder cancer cell line pulse with Mitomycin C (×0.5 fold IC50×1, ×2) for 1, 3, 7 and 24 hrs.
(§4) In brief, bladder cancer cells were plated at 5×10^5 cells per well (2 ml) of a 6 well tray and incubated at 37° C. for 24 hrs. The cells were treated with Mitomycin C (2× fold IC50 1× fold IC50, 0.5× fold IC50) and each concentration incubated at 37° C. for 1, 3, 7 and 24 hrs. Therefore T24 cells were treated 0.75, 0.375, 0.1876 ug/ml Mitomycin C, 5637 cells were treated with 0.68, 0.34, 0.17 ug/ml Mitomycin C and KU19-19 cells were treated with 1.4876, 0.7438, 0.3719 ug/ml. The cells were trypsinised and centrifuged for 3 mins at 1500 rpm to a pellet and re-suspended in FACS Buffer (PBS containing 10% BSA and 1% sodium azide). 100 ul of cells were added to appropriate wells in a 96-well round-bottomed plate. Antibodies were prepared at 1:10 in FACS buffer CD54 PE (BD: 347977) mIgG2b, CD55 PE (BD: 555694) mIgG2a and Isotype controls. […] Samples were read on a MACSQuant™ Analyzer (Bench top flow cytometer).
as §2
On the technique in general: In flow cytometry, cells or beads pass a laser one at a time.

Assay [4] relates to DAF. Nature of the assay: FACS analysis of DAF (CD55) expression after Mitomycin C pulse. The format is cell-based, Human. The settings on record: T24, RU19-19 and 5637 cells; short pulse (1-3 hrs); measured at 24 hrs. As for the experimental part: as §3, §4, §2
The subject of a further assay is CVA21. The assay can be described thus: CVA21 viral replication in 5637 cells on exposure to MMC (TCID50 titration on SK-MEL-28). The format is cell-based. The settings on record: CVA21 MOI 3, 0.4375 or 0.875 ug/ml Mitomycin C, 24 or 48 hours. As for the experimental part: Monolayers of 5637 bladder cancer cells were plated and incubated at 37° C./5% CO2 overnight. The media was removed, and CVA21 added at an MOI of 3 in 10% FCS medium containing 0, 0.4375 or 0.875 ug/ml Mitomycin C. The cells were then incubated at 37° C. for 24 or 48 hours. The plates were then frozen at −80° C. for 1 hour or o/n and then thawed after which cell CVA21 lysate was serially diluted 1:10 in 2% DMEM. The different concentrations of lysate were then added to SK-MEL-28 cells which had previously been plated at 1×10^4 cells per well (100 μL) in a 96 well plate in 10% DMEM. The assay was then incubated at 37° C. for 5 days, after which the media was removed from the cells and 100 ul of 0.1% Glutaldehyde (Sigma) in PBS was added. After an incubation of 10 mins at RT, the Glutaldehyde solution was removed and 100 ul of 0.1% w/v Crystal Violet solution (in 20% Ethanol) was added in order to visualise the cells. Following another incubation of 10 mins at RT the excess Crystal Violet was removed with tap water. TCID50 was calculated by the Spearman & Kärber algorithm as described in Hierholzer & Killington (1996), Virology Methods Manual, p. 374.

Take `CO[C@@]12[C@H](COC(N)=O)C3=C(C(=O)C(C)=C(N)C3=O)N1C[C@@H]1N[C@@H]12` [Mitomycin C, mitomycin C]: the results for the IC50 in the assay with T24 cells, in the assay on 5637 cells and in the assay on KU19-19 cells were 0.375 µg/mL (≈ 1.12 µM), 0.34 µg/mL (≈ 1.02 µM) and 0.7438 µg/mL (≈ 2.22 µM), respectively. Also, the “ICAM-1 expression at the RNA level” value with ICAM-1 [1] was “up-regulates”. Also, in the assay with DAF [2], the “DAF expression at the RNA level” value is recorded as “up-regulates”. The “ICAM-1 expression by FACS” value with ICAM-1 [3] (T24, RU19-19 and 5637 cells, short pulse (1-3 hrs), measured at 24 hrs) was “strongly amplified”. The ICAM-1 amplification entry with ICAM-1 [3] (one hour pulse of MMC, present from at least 4 hours after exposure) was “strong ICAM-1 amplification”. In addition, the “DAF expression by FACS” value in the assay with DAF [4] is on record as “strongly amplified”. In addition, in the assay on CVA21, the “effect on CVA21 viral replication” value is given as “enhanced viral replication”.

The IC50 is the midpoint of a concentration-inhibition curve. Read a low IC50 as greater potency.
